Experimental data from US5428059A, “Benzopyran derivatives and an anti-allergic agent possessing the same as the active ingredient” (Dainippon Ink & Chemicals, Inc., priority 1991, dated 1995).

System: Hartley-type male guinea pigs
Assay: Guinea Pig Homogeneous Skin Passive Anaphylaxis Assay (PCA reaction)
Format: in vivo, guinea pig (Hartley-type)
Settings: Cavia porcellus, 10 mg/kg oral, 48 h after sensitization, read-out: Allergic reaction inhibitory index (%)
Experimental: In order to confirm the anti-allergic action of the compounds according to the present invention, as an anti-allergic action confirmation assay, the widely used Guinea Pig Homogeneous Skin Passive Anaphylaxis Assay (PCA Reaction Assay; Passive Cutaneous Anaphylaxis Reaction Assay) was carried out. The assay method used will be explained in the following.
Assay method: Hartley-type male guinea pigs (body weight: 250~300 g) were sensitized by the following procedure; a mixture of 2 μg of egg albumin (OVA) and 5 μg of aluminium hydroxide gel was administered intraperitoneally 3 times every 2 weeks, and the anti-OVA blood serum was manufactured.
The anti-blood serum obtained was then diluted 120 times using physiological saline solution, and then to groups each containing 6 shaved guinea pigs, was injected at a quantity of 0.05 ml respectively, into two positions in the back portion, inside the skin of each animal.
After the 48th hour of sensitization, 10 mg/kg of the test substance to be tested was orally administered, following which a mixture of 2 mg OVA and 5 mg of Evans Blue was administered by intraveneous injection into the hind leg, triggering the anaphylaxis reaction. As the positive control, Tranilast, a well known anti-allergic agent, was used, and in the same manner as the substances to be tested, 100 mg/kg of it was orally administered after the 48th hour of sensitization.
30 minutes after triggering the reaction, the animals were bled to death under ether anesthesia, and their back portion skins were peeled off. The long and short diameters of pigment leakage spots on the interior surface of the skins were measured, and the product of these (mm^2) were entered into formula 1 as "pigment leakage amount", from which the allergic reaction inhibitory index wins calculated. [formula]
I: Allergic reaction inhibitory index (%)
A: Pigment leakage amount of solvent control group
B: Pigment leakage amount of test substance group
C: Pigment leakage amount of […]

| Structure (SMILES) | inhibition in vivo at 10 mg/kg [%] |
| --- | --- |
| CC(C)=CCC/C(C)=C/COc1cccc2c(OC(C)C)c(OC(=O)c3ccccc3)c(=O)oc12 [Compound 165, 3-(benzoyloxy)-4-(isopropoxy)-8-(geranyloxy)-2H-1-benzopyran-2-one] | 30 |
| CCCCCCCCCCOc1ccc2c(O)c(OC)c(=O)oc2c1 [Compound 62, 3-(methoxy)-4-hydroxy-7-(decyloxy)-2H-1-benzopyran-2-one] | 43 |
| CC(C)Oc1c(O)c2c(O)cccc2oc1=O [Compound 182, 3-(isopropoxy)-4,5-(dihydroxy)-2H-1-benzopyran-2-one] | 31 |
| CC(C)=CCC/C(C)=C/COc1c(O)c(=O)oc2cc(O)ccc12 [Compound 20, 3,7-(dihydroxy)-4-(geranyloxy)-2H-1-benzopyran-2-one] | 30 |
| O=C(Oc1c(O)c2cccc(O)c2oc1=O)c1ccccc1 [Compound 92, 3-(benzoyloxy)-4,8-dihydroxy-2H-1-benzopyran-2-one] | 33 |
| CCCCOc1cccc2c(O)c(OC(=O)c3ccccc3)c(=O)oc12 [Compound 127, 3-(benzoyloxy)-4-hydroxy-8-(butyloxy)-2H-1-benzopyran-2-one] | 34 |
| COc1cccc2oc(=O)c(OC/C=C(\C)CCC=C(C)C)c(OC(C)C)c12 [Compound 207, 3-(geranyloxy)-4-(isopropoxy)-5-(methoxy)-2H-1-benzopyran-2-one] | 33 |
| CCCCCCCCCCOc1cccc2oc(=O)c(OC(C)=O)c(OC(C)C)c12 [Compound 235, 3-(acetoxy)-4-(isopropoxy)-5-(decyloxy)-2H-1-benzopyran-2-one] | 30 |
| COc1ccc2c(O)c(OC(C)C)c(=O)oc2c1 [Compound 34, 3-(isopropoxy)-4-hydroxy-7-(methoxy)-2H-1-benzopyran-2-one] | 39 |
| COc1c(O)c2ccc(OC/C=C(\C)CCC=C(C)C)cc2oc1=O [Compound 78, 3-(methoxy)-4-hydroxy-7-(geranyloxy)-2H-1-benzopyran-2-one] | 37 |
| CC(=O)Oc1c(O)c(=O)oc2c(O)cccc12 [Compound 94, 3,8-(dihydroxy)-4-(acetoxy)-2H-1-benzopyran-2-one] | 36 |
| CCCCCCCCCCOc1c(OC)c(=O)oc2c(OC(C)C)cccc12 [Compound 135, 3-(methoxy)-4-(decyloxy)-8-(isopropoxy)-2H-1-benzoyran-2-one] | 30 |
| CC(C)=CCC/C(C)=C/COc1c(OC/C=C(\C)CCC=C(C)C)c2c(O)cccc2oc1=O [Compound 193, 3,4-(digeranyloxy)-5-hydroxy-2H-1-benzopyran-2-one] | 30 |
| CC(C)=CCC/C(C)=C/COc1cccc2oc(=O)c(OC(=O)c3ccccc3)c(OC/C=C(\C)CCC=C(C)C)c12 [Compound 256, 3-(benzoyloxy)-4,5-(digeranyloxy)-2H-1-benzopyran-2-one] | 30 |
| COc1cccc2oc(=O)c(OC/C=C(\C)CCC=C(C)C)c(O)c12 [Compound 203, 3-(geranyloxy)-4-hydroxy-5-(methoxy)-2H-1-benzopyran-2-one] | 41 |
| COc1ccc2c(O)c(OC/C=C(\C)CCC=C(C)C)c(=O)oc2c1 [Compound 37, 3-(geranyloxy)-4-hydroxy-7-(methoxy)-2H-1-benzopyran-2-one] | 40 |
| COc1c(OC/C=C(\C)CCC=C(C)C)c(=O)oc2c(O)cccc12 [Compound 107, 3-(geranyloxy)-4-(methoxy)-8-hydroxy-2H-1-benzopyran-2-one] | 33 |
| COc1c(O)c2cccc(OC)c2oc1=O [Compound 115, 3,8-(dimethoxy)-4-hydroxy-2H-1-benzopyran-2-one] | 33 |
| COc1c(OC/C=C(\C)CCC=C(C)C)c2cccc(OC(C)C)c2oc1=O [Compound 141, 3-(methoxy)-4-(geranyloxy)-8-(isopropoxy)-2H-1-benzopyran-2-one] | 32 |
| CC(C)=CCC/C(C)=C/COc1ccc2c(O)c(OC(=O)c3ccccc3)c(=O)oc2c1 [Compound 74, 3-(benzoyloxy)-4-hydroxy-7-(geranyloxy)-2H-1-benzopyran-2-one] | 34 |
| CC(=O)Oc1c(OC/C=C(\C)CCC=C(C)C)c(=O)oc2c(OC/C=C(\C)CCC=C(C)C)cccc12 [Compound 169, 3,8-(digeranyloxy)-4-(acetoxy)-2H-1-benzopyran-2-one] | 30 |
| CCCCCCCCCCOc1c(OC)c(=O)oc2cc(OC(C)C)ccc12 [Compound 50, 3-(methoxy)-4-(decyloxy)-7-(isopropoxy)-2H-1-benzopyran-2-one] | 33 |

| Structure (SMILES) | inhibition in vivo at 10 mg/kg [%] |
| --- | --- |
| CCCCCCCCCCOc1c(OC(=O)c2ccccc2)c2c(O)cccc2oc1=O [Compound 186, 3-(decyloxy)-4-(benzoyloxy)-5-hydroxy-2H-1-benzopyran-2-one] | 32 |
| CC(C)=CCC/C(C)=C/COc1c(O)c(=O)oc2cc(OC(C)C)ccc12 [Compound 54, 3-hydroxy-4-(geranyloxy)-7-(isopropoxy)-2H-1-benzopyran-2-one] | 32 |
| O=c1oc2ccc(O)cc2c(O)c1O [Compound 263, 3,4,6-trihydroxy-2H-1-benzopyran-2-one] | 42 |
| CCCCCCCCCCOc1c(O)c2cc(O)ccc2oc1=O [Compound 266, 3-(decyloxy)-4,6-(dihydroxy)-2H-1-benzopyran-2-one] | 33 |
| COc1ccc2c(OC/C=C(\C)CCC=C(C)C)c(O)c(=O)oc2c1 [Compound 38, 3-hydroxy-4-(geranyloxy)-7-(methoxy)-2H-1-benzopyran-2-one] | 31 |
| COc1ccc2c(OC(C)C)c(OC/C=C(\C)CCC=C(C)C)c(=O)oc2c1 [Compound 41, 3-(geranyloxy)-4-(isopropoxy)-7-(methoxy)-2H-1-benzopyran-2-one] | 30 |
| CCCCCCCCCCOc1cccc2c(O)c(OC(C)C)c(=O)oc12 [Compound 147, 3-(isopropoxy)-4-hydroxy-8-(decyloxy)-2H-1-benzopyran-2-one] | 30 |
| CC(C)=CCC/C(C)=C/COc1c(OC/C=C(\C)CCC=C(C)C)c2ccc(O)cc2oc1=O [Compound 26, 3,4-(digeranyloxy)-7-hydroxy-2H-1-benzopyran-2-one] | 30 |
| COc1cccc2oc(=O)c(O)c(O)c12 [Compound 195, 3,4-(dihydroxy)-5-(methoxy)-2H-1-benzopyran-2-one] | 55 |
| CCCCCCCCCCOc1cccc2oc(=O)c(O)c(OC/C=C(\C)CCC=C(C)C)c12 [Compound 238, 3-hydroxy-4-(geranyloxy)-5-(decyloxy)-2H-1-benzopyran-2-one] | 33 |
| COc1cccc2c(OC(=O)c3ccccc3)c(OC(C)=O)c(=O)oc12 [Compound 114, 3-(acetoxy)-4-(benzoyloxy)-8-(methoxy)-2H-1-benzopyran-2-one] | 31 |
| CC(=O)Oc1c(O)c(=O)oc2cccc(O)c12 [Compound 178, 3,5-(dihydroxy)-4-(acetoxy)-2H-1-benzopyran-2-one] | 30 |
| CC(=O)Oc1c(O)c2cc(O)ccc2oc1=O [Compound 264, 3-(acetoxy)-4,6-(dihydroxy)-2H-1-benzopyran-2-one] | 36 |
| O=C(Oc1c(O)c2c(O)cccc2oc1=O)c1ccccc1 [Compound 176, 3-(benzoyloxy)-4,5-dihydroxy-2H-1-benzopyran-2-one] | 34 |
| CC(=O)Oc1c(OC(C)=O)c2c(OC(C)=O)cccc2oc1=O [Compound 179, 3,4,5-(triacetoxy)-2H-1-benzopyran-2-one] | 32 |
| CC(C)=CCC/C(C)=C/COc1ccc2c(O)c(OC/C=C(\C)CCC=C(C)C)c(=O)oc2c1 [Compound 83, 3,7-(digeranyloxy)-4-hydroxy-2H-1-benzopyran-2-one] | 34 |
| CC(C)=CCC/C(C)=C/COc1c(O)c(=O)oc2c(OC/C=C(\C)CCC=C(C)C)cccc12 [Compound 168, 3-hydroxy-4,8-(digeranyloxy)-2H-1-benzopyran-2-one] | 34 |
| CC(=O)Oc1c(OC(=O)c2ccccc2)c(=O)oc2cc(OC/C=C(\C)CCC=C(C)C)ccc12 [Compound 77, 3-(benzoyloxy)-4-(acetoxy)-7-(geranyloxy)-2H-1-benzopyran-2-one] | 31 |
| CC(=O)Oc1c(OC(=O)c2ccccc2)c2ccc(O)cc2oc1=O [Compound 10, 3-(acetoxy)-4-(benzoyloxy)-7-hydroxy-2H-1-benzopyran-2-one] | 30 |
| COc1c(OC(C)C)c2c(OC)cccc2oc1=O [Compound 200, 3,5-(dimethoxy)-4-(isopropoxy)-2H-1-benzopyran-2-one] | 30 |
| CC(=O)Oc1c(OC/C=C(\C)CCC=C(C)C)c(=O)oc2c(O)cccc12 [Compound 104, 3-(geranyloxy)-4-(acetoxy)-8-hydroxy-2H-1-benzopyran-2-one] | 32 |
